In PubChem BioAssay AID330 (DTP/NCI, 2004):
Values joined by “and” are separate entries in the source; they are usually repeats but may differ in a detail not shown here. Equal entries are not always repeated. Toxic doses and inconclusive results are not listed.

Test system: P388 leukemia ip, CD2F1 mice, survival T/C
Assay: NCI In Vivo Anticancer Drug Screen. Data for tumor model P388 Leukemia (intraperitoneal) in CD2F1 (CDF1) mice
Conditions: endpoint: median survival time, higher = longer survival
Procedure, shortened: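 Mice carrying the transplanted tumor received test compound or vehicle. Survival was recorded in each group, and the value is the treated-group measurement divided by that of the vehicle-treated control group.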

[1] = dose: 50.0 mg/kg/injection, schedule: Q01DX005 (ip), vehicle: Klucel (hydroxypropylcellulose) (HPC)
[2] = dose: 100.0 mg/kg/injection, schedule: Q01DX005 (ip), vehicle: Klucel (hydroxypropylcellulose) (HPC)
[3] = dose: 200.0 mg/kg/injection, schedule: Q01DX005 (ip), vehicle: Klucel (hydroxypropylcellulose) (HPC)
[4] = dose: 50.0 mg/kg/injection, schedule: Q01DX009 (ip), vehicle: saline
[5] = dose: 100.0 mg/kg/injection, schedule: Q01DX009 (ip), vehicle: saline
[6] = dose: 200.0 mg/kg/injection, schedule: Q01DX009 (ip), vehicle: saline
[7] = dose: 60.0 mg/kg/injection, schedule: Q01DX005 (ip), vehicle: saline with Tween-80
[8] = dose: 120.0 mg/kg/injection, schedule: Q01DX005 (ip), vehicle: saline with Tween-80
[9] = dose: 240.0 mg/kg/injection, schedule: Q01DX005 (ip), vehicle: saline with Tween-80
[10] = dose: 50.0 mg/kg/injection, schedule: Q01DX005 (ip), vehicle: saline
[11] = dose: 100.0 mg/kg/injection, schedule: Q01DX005 (ip), vehicle: saline
[12] = dose: 6.25 mg/kg/injection, schedule: Q01DX005 (ip), vehicle: Klucel (hydroxypropylcellulose) (HPC)
[13] = dose: 12.5 mg/kg/injection, schedule: Q01DX005 (ip), vehicle: Klucel (hydroxypropylcellulose) (HPC)
[14] = dose: 25.0 mg/kg/injection, schedule: Q01DX005 (ip), vehicle: Klucel (hydroxypropylcellulose) (HPC)
[15] = dose: 50.0 mg/kg/injection, schedule: Q01DX009 (ip), vehicle: saline with Tween-80
[16] = dose: 100.0 mg/kg/injection, schedule: Q01DX009 (ip), vehicle: saline with Tween-80

CC(NC(=O)C1CCCN1C(=O)OC(C)(C)C)C(=O)OCc1ccccc1 (stereo not drawn)
T/C (dose: 50.0 mg/kg/injection, schedule: Q01DX005 (ip), vehicle: saline + Tween-80 + alcohol): 98 % of control
T/C (dose: 100.0 mg/kg/injection, schedule: Q01DX005 (ip), vehicle: saline + Tween-80 + alcohol): 98 % of control
T/C (dose: 200.0 mg/kg/injection, schedule: Q01DX005 (ip), vehicle: saline + Tween-80 + alcohol): 99 % of control

CCN(CC)CCSC1CC2CC(C1C)C2(C)C (stereo not drawn)
T/C [1]: 99 % of control
T/C [2]: 109 % of control
T/C [3]: 104 % of control

CNC(=S)N/N=C\C(C)=N/Nc1ccc([N+](=O)[O-])cc1
T/C [4]: 94 % of control
T/C [5]: 93 % of control
T/C [6]: 87 % of control

O=c1[nH]ccn1-c1ccccc1
T/C [7]: 102 % of control
T/C [8]: 100 % of control
T/C [9]: 97 % of control

Cc1ccc(C(=O)NCCN2CCN3Cc4[nH]c5ccccc5c4CC3C2)cc1 (stereo not drawn)
T/C (dose: 100.0 mg/kg/injection, schedule: Q04DX002 (ip), vehicle: saline with Tween-80): 92 % of control
T/C (dose: 200.0 mg/kg/injection, schedule: Q04DX002 (ip), vehicle: saline with Tween-80): 105 % of control

N#CC(CCCC(C#N)c1ccccc1)c1ccccc1 (stereo not drawn)
T/C (dose: 50.0 mg/kg/injection, schedule: Q01DX001 (ip), vehicle: Klucel (hydroxypropylcellulose) (HPC)): 106 % of control
T/C (dose: 100.0 mg/kg/injection, schedule: Q01DX001 (ip), vehicle: Klucel (hydroxypropylcellulose) (HPC)): 108 % of control

CCc1nc2cc(C)ncn2n1
T/C (dose: 100.0 mg/kg/injection, schedule: Q04DX003 (ip), vehicle: saline): 100 % of control
T/C (dose: 200.0 mg/kg/injection, schedule: Q04DX003 (ip), vehicle: saline): 96 % of control
T/C (dose: 400.0 mg/kg/injection, schedule: Q04DX003 (ip), vehicle: saline): 101 % of control

Oc1c(Cl)cc(Cl)cc1/C=N/Nc1ccc2ccccc2n1
T/C (dose: 50.0 mg/kg/injection, schedule: Q04DX003 (ip), vehicle: saline with Tween-80): 89 % of control
T/C (dose: 100.0 mg/kg/injection, schedule: Q04DX003 (ip), vehicle: saline with Tween-80): 94 % of control
T/C (dose: 200.0 mg/kg/injection, schedule: Q04DX003 (ip), vehicle: saline with Tween-80): 100 % of control

C[CH2][Sn]([CH2]C)([O]S(C)(=O)=O)[O]S(C)(=O)=O
T/C (dose: 1.56 mg/kg/injection, schedule: Q04DX003 (ip), vehicle: saline): 114 % of control
T/C (dose: 6.25 mg/kg/injection, schedule: Q04DX003 (ip), vehicle: saline): 117 % of control and 118 % of control
T/C (dose: 12.5 mg/kg/injection, schedule: Q04DX003 (ip), vehicle: saline): 164 % of control

Cc1ccc(C(=O)Nc2ccncc2)cc1
T/C (dose: 6.25 mg/kg/injection, schedule: Q01DX009 (ip), vehicle: Klucel (hydroxypropylcellulose) (HPC)): 109 % of control
T/C (dose: 12.5 mg/kg/injection, schedule: Q01DX009 (ip), vehicle: Klucel (hydroxypropylcellulose) (HPC)): 99 % of control

O=C1CCC2CCC1N2 (stereo not drawn)
T/C [10]: 100 % of control
T/C [11]: 100 % of control
T/C (dose: 200.0 mg/kg/injection, schedule: Q01DX005 (ip), vehicle: saline): 100 % of control

COc1ccc(C2CN(C(=O)c3ccccc3)N=C(c3ccccc3)O2)cc1 (stereo not drawn)
T/C [1]: 100 % of control
T/C [2]: 101 % of control
T/C [3]: 94 % of control

COc1cc2c(cc1OC)C(C)C1c3cc4c(cc3CCN1C2)OCO4 (stereo not drawn)
T/C (dose: 50.0 mg/kg/injection, schedule: Q04DX003 (ip), vehicle: distilled water + Tween-80): 103 % of control and 100 % of control
T/C (dose: 100.0 mg/kg/injection, schedule: Q04DX003 (ip), vehicle: distilled water + Tween-80): 97 % of control and 103 % of control
T/C (dose: 200.0 mg/kg/injection, schedule: Q04DX003 (ip), vehicle: distilled water + Tween-80): 99 % of control and 103 % of control
T/C (dose: 400.0 mg/kg/injection, schedule: Q04DX003 (ip), vehicle: distilled water + Tween-80): 103 % of control

COc1cccc(/C=N/Nc2cc(C)nc3cc4c(cc23)OCO4)c1
T/C [12]: 104 % of control
T/C [13]: 97 % of control
T/C [14]: 100 % of control and 87 % of control
T/C [1]: 100 % of control and 102 % of control and 96 % of control
T/C [2]: 95 % of control

COc1ccc2c(C)c3[n+](cc2c1OC)CCc1cc2c(cc1-3)OCO2
T/C (dose: 0.4 mg/kg/injection, schedule: Q01DX005 (ip), vehicle: saline): 95 % of control
T/C (dose: 0.78 mg/kg/injection, schedule: Q04DX003 (ip), vehicle: water): 102 % of control
T/C (dose: 0.8 mg/kg/injection, schedule: Q01DX005 (ip), vehicle: saline): 101 % of control
T/C (dose: 1.56 mg/kg/injection, schedule: Q04DX003 (ip), vehicle: water): 103 % of control
T/C (dose: 1.6 mg/kg/injection, schedule: Q01DX005 (ip), vehicle: saline): 107 % of control
T/C (dose: 3.13 mg/kg/injection, schedule: Q04DX003 (ip), vehicle: water): 106 % of control
T/C (dose: 6.25 mg/kg/injection, schedule: Q04DX003 (ip), vehicle: water): 97 % of control
T/C (dose: 12.5 mg/kg/injection, schedule: Q04DX003 (ip), vehicle: water): 97 % of control

COc1ccc(CCN)cc1OC
T/C [15]: 100 % of control
T/C [16]: 100 % of control
T/C [5]: 108 % of control
T/C (dose: 200.0 mg/kg/injection, schedule: Q01DX009 (ip), vehicle: saline with Tween-80): 100 % of control
T/C [6]: 106 % of control

COC(=O)CC(=O)C(C)SC (stereo not drawn)
T/C (dose: 25.0 mg/kg/injection, schedule: Q01DX009 (ip), vehicle: saline with Tween-80): 100 % of control
T/C [15]: 109 % of control
T/C [16]: 97 % of control

CCC(=O)Nc1nnc(SCCCCCCCCCCCCSc2nnc(NC(=O)CC)s2)s1
T/C [1]: 96 % of control
T/C [2]: 88 % of control
T/C [3]: 87 % of control

NC(N)=Nc1nc2ccccc2s1
T/C (dose: 12.5 mg/kg/injection, schedule: Q01DX009 (ip), vehicle: saline sonified): 100 % of control
T/C (dose: 25.0 mg/kg/injection, schedule: Q01DX009 (ip), vehicle: saline sonified): 100 % of control
T/C (dose: 50.0 mg/kg/injection, schedule: Q01DX009 (ip), vehicle: saline sonified): 100 % of control

CC1(C)CCC2(C(=O)OC3OC(CO)C(O)C(O)C3O)CCC3(C)C(=CCC4C5(C)CCC(OC6OC(CO)C(O)C(OC7OC(CO)C(O)C(O)C7O)C6O)C(C)(C)C5CCC43C)C2C1 (stereo not drawn)
T/C [12]: 102 % of control
T/C [13]: 98 % of control
T/C [14]: 116 % of control
T/C [1]: 105 % of control

O/N=C(/Cc1nc2cc(Cl)c(Cl)cc2nc1C/C(=N/O)c1cccc2ccccc12)c1cccc2ccccc12
T/C [7]: 91 % of control
T/C [8]: 99 % of control
T/C [9]: 94 % of control

CC(=O)c1ccc(C(C)=O)cc1
T/C [4]: 101 % of control
T/C [5]: 95 % of control
T/C [6]: 109 % of control

COc1cccc(NCCCSC)c1
T/C [10]: 102 % of control
T/C [11]: 116 % of control

CC(=O)Nc1ccc(CN2CC(C)N(N)C(C)C2)cc1 (stereo not drawn)
T/C (dose: 25.0 mg/kg/injection, schedule: Q04DX003 (ip), vehicle: Klucel (hydroxypropylcellulose) (HPC)): 101 % of control
T/C (dose: 50.0 mg/kg/injection, schedule: Q04DX003 (ip), vehicle: Klucel (hydroxypropylcellulose) (HPC)): 98 % of control
T/C (dose: 100.0 mg/kg/injection, schedule: Q04DX003 (ip), vehicle: Klucel (hydroxypropylcellulose) (HPC)): 95 % of control
T/C (dose: 200.0 mg/kg/injection, schedule: Q04DX003 (ip), vehicle: Klucel (hydroxypropylcellulose) (HPC)): 100 % of control
T/C (dose: 400.0 mg/kg/injection, schedule: Q04DX003 (ip), vehicle: Klucel (hydroxypropylcellulose) (HPC)): 104 % of control

C=C1C(=O)O[C@@H]2/C=C(/C)C3=CC(=O)[C@@](C)(C[C@@H](OC(=O)C(C)CC)C12)O3 (stereo partly drawn)
T/C (dose: 10.0 mg/kg/injection, schedule: Q01DX005 (ip), vehicle: Klucel (hydroxypropylcellulose) (HPC)): 100 % of control
T/C (dose: 20.0 mg/kg/injection, schedule: Q01DX005 (ip), vehicle: Klucel (hydroxypropylcellulose) (HPC)): 102 % of control
T/C (dose: 40.0 mg/kg/injection, schedule: Q01DX005 (ip), vehicle: Klucel (hydroxypropylcellulose) (HPC)): 114 % of control
T/C (dose: 80.0 mg/kg/injection, schedule: Q01DX005 (ip), vehicle: Klucel (hydroxypropylcellulose) (HPC)): 108 % of control

CCCCOC1NC(=O)Oc2ccccc21 (stereo not drawn)
T/C [7]: 100 % of control and 103 % of control and 97 % of control
T/C [8]: 101 % of control and 108 % of control (2×)
T/C [9]: 100 % of control and 109 % of control
